According to patent US20250144094A1 (Erasca, Inc., priority 2021, published 2025):

Target: Recombinant human ULK1 (1-649) (Homo sapiens (Human), UniProt O75385)
Assay: ULK1 ADP Glo kinase activity assay, new method (ULKtide peptide substrate)
Details: 25° C., 40 minutes, read-out: ULK1 biochemical IC50
In short: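 GST-tagged human ULK1 (1-649) from Sf9 cells was reacted with ULKtide peptide and ATP for 40 min at 25 °C across 12-point compound dilutions from 10 μM. ADP formed was quantified by ADP-Glo luminescence; IC50 came from four-parameter fits relative to DMSO controls.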

Chain of Recombinant human ULK1 (1-649) (O75385 1-649): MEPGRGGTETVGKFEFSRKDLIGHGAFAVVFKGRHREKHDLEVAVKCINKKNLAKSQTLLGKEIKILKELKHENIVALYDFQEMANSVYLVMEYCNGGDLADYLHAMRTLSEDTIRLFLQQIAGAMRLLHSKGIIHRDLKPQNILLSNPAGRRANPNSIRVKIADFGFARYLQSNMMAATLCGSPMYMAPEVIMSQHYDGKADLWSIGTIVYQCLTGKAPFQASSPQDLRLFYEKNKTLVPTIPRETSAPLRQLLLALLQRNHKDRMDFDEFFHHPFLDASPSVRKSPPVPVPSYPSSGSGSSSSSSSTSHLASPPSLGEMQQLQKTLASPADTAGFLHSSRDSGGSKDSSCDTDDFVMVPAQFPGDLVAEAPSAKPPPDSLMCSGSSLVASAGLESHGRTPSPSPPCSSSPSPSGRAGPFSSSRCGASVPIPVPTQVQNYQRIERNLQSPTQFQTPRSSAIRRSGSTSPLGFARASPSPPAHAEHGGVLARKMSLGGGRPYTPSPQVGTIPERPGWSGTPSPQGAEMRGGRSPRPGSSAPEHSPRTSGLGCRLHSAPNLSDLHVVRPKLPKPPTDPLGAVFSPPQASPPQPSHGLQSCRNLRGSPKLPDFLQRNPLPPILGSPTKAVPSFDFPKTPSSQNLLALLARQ

SMILES | IC50 [nM]
CCc1cc(N2CCN[C@@H](C)C2)ccc1Nc1ncc(C(F)(F)F)c(-c2cc3c(s2)C(=O)N(C2COC2)CCS3(=O)=O)n1 [Example 354, (S)-7-(2-((2-ethyl-4-(3-methylpiperazin-1-yl)phenyl)amino)-5-(trifluoromethyl)pyrimidin-4-yl)-4-(oxetan-3-yl)-3,4-dihydrothieno[2,3-f][1,4]thiazepin-5(2H)-one 1,1-dioxide] | ≤ 5
CCc1cc(N2CCN[C@@H](CO)C2)ccc1Nc1ncc(C(F)(F)F)c(-c2cc3c(s2)C(=O)N(C2COC2)CCS3(=O)=O)n1 [Example 355, (R)-7-(2-((2-ethyl-4-(3-(hydroxymethyl)piperazin-1-yl)phenyl)amino)-5-(trifluoromethyl)pyrimidin-4-yl)-4-(oxetan-3-yl)-3,4-dihydrothieno[2,3-f][1,4]thiazepin-5(2H)-one 1,1-dioxide] | ≤ 5
CCc1cc(N2C[C@H](C)N[C@@H](C)C2)ccc1Nc1ncc(C(F)(F)F)c(-c2cc3c(s2)C(=O)N(C2CC2)CCS3(=O)=O)n1 [Example 356, 4-cyclopropyl-7-(2-((4-((3S,5S)-3,5-dimethylpiperazin-1-yl)-2-ethylphenyl)amino)-5-(trifluoromethyl)pyrimidin-4-yl)-3,4-dihydrothieno[2,3-f][1,4]thiazepin-5(2H)-one 1,1-dioxide] | ≤ 5
C[C@@H]1CN(c2ccc(Nc3ncc(C(F)(F)F)c(-c4cc5c(s4)C(=O)N(C4COC4)CCS5(=O)=O)n3)c(C3CC3)c2)C[C@H](C)N1C [Example 357, 7-(2-((2-cyclopropyl-4-((3S,5R)-3,4,5-trimethylpiperazin-1-yl)phenyl)amino)-5-(trifluoromethyl)pyrimidin-4-yl)-4-(oxetan-3-yl)-3,4-dihydrothieno[2,3-f][1,4]thiazepin-5(2H)-one 1,1-dioxide] | ≤ 5
O=C1c2sc(-c3nc(Nc4ccc(N5CCN[C@@H](CO)C5)cc4C4CC4)ncc3C(F)(F)F)cc2S(=O)(=O)CCN1C1COC1 [Example 358, (R)-7-(2-((2-cyclopropyl-4-(3-(hydroxymethyl)piperazin-1-yl)phenyl)amino)-5-(trifluoromethyl)pyrimidin-4-yl)-4-(oxetan-3-yl)-3,4-dihydrothieno[2,3-f][1,4]thiazepin-5(2H)-one 1,1-dioxide] | ≤ 5
CCc1cc(N2CCN[C@H](C)C2)ccc1Nc1ncc(C(F)(F)F)c(-c2cc3c(s2)C(=O)N(C2CC2)CCS3(=O)=O)n1 [Example 359, (R)-4-cyclopropyl-7-(2-((2-ethyl-4-(3-methylpiperazin-1-yl)phenyl)amino)-5-(trifluoromethyl)pyrimidin-4-yl)-3,4-dihydrothieno[2,3-f][1,4]thiazepin-5(2H)-one 1,1-dioxide] | ≤ 5
CCc1cc(N2CCN(C)[C@H](C)C2)ccc1Nc1ncc(C(F)(F)F)c(-c2cc3c(s2)C(=O)N(C2CC2)CCS3(=O)=O)n1 [Example 360, (R)-4-cyclopropyl-7-(2-((4-(3,4-dimethylpiperazin-1-yl)-2-ethylphenyl)amino)-5-(trifluoromethyl)pyrimidin-4-yl)-3,4-dihydrothieno[2,3-f][1,4]thiazepin-5(2H)-one 1,1-dioxide] | ≤ 5
CCc1cc(N2CCN(C)[C@@H](C)C2)ccc1Nc1ncc(C(F)(F)F)c(-c2cc3c(s2)C(=O)N(C2CC2)CCS3(=O)=O)n1 [Example 361, (S)-4-cyclopropyl-7-(2-((4-(3,4-dimethylpiperazin-1-yl)-2-ethylphenyl)amino)-5-(trifluoromethyl)pyrimidin-4-yl)-3,4-dihydrothieno[2,3-f][1,4]thiazepin-5(2H)-one 1,1-dioxide] | ≤ 5
CCc1cc(N2CCN(C)[C@@H](C)C2)ccc1Nc1ncc(C(F)(F)F)c(-c2cc3c(s2)C(=O)N(C2COC2)CCS3(=O)=O)n1 [Example 362, (S)-7-(2-((4-(3,4-dimethylpiperazin-1-yl)-2-ethylphenyl)amino)-5-(trifluoromethyl)pyrimidin-4-yl)-4-(oxetan-3-yl)-3,4-dihydrothieno[2,3-f][1,4]thiazepin-5(2H)-one 1,1-dioxide] | ≤ 5
CCc1cc(N2C[C@H](C)N(C)[C@@H](C)C2)ccc1Nc1ncc(C(F)(F)F)c(-c2cc3c(s2)C(=O)N(C2CC2)CCS3(=O)=O)n1 [Example 363, 4-cyclopropyl-7-(2-((2-ethyl-4-((3S,5S)-3,4,5-trimethylpiperazin-1-yl)phenyl)amino)-5-(trifluoromethyl)pyrimidin-4-yl)-3,4-dihydrothieno[2,3-f][1,4]thiazepin-5(2H)-one 1,1-dioxide] | ≤ 5
CCc1cc(N2CCNCC2)ccc1Nc1ncc(C(F)(F)F)c(-c2cc3c(s2)C(=O)N(C2COC2)CCS3(=O)=O)n1 [Example 364, 7-(2-((2-ethyl-4-(piperazin-1-yl)phenyl)amino)-5-(trifluoromethyl)pyrimidin-4-yl)-4-(oxetan-3-yl)-3,4-dihydrothieno[2,3-f][1,4]thiazepin-5(2H)-one 1,1-dioxide] | ≤ 5
CCc1cc(N2C[C@@H](C)N[C@@H](C)C2)ccc1Nc1ncc(C(F)(F)F)c(-c2cc3c(s2)C(=O)N(C2CC2)CCS3(=O)=O)n1 [Example 366, 4-cyclopropyl-7-(2-((4-((3S,5R)-3,5-dimethylpiperazin-1-yl)-2-ethylphenyl)amino)-5-(trifluoromethyl)pyrimidin-4-yl)-3,4-dihydrothieno[2,3-f][1,4]thiazepin-5(2H)-one 1,1-dioxide] | ≤ 5

Other lines, results leading:

IC50 [nM] | SMILES
≤ 5 | CCc1cc(N2C[C@@H](C)N(C)[C@@H](C)C2)ccc1Nc1ncc(C(F)(F)F)c(-c2cc3c(s2)C(=O)N(C2CC2)CCS3(=O)=O)n1 [Example 367, 4-cyclopropyl-7-(2-((2-ethyl-4-((3S,5R)-3,4,5-trimethylpiperazin-1-yl)phenyl)amino)-5-(trifluoromethyl)pyrimidin-4-yl)-3,4-dihydrothieno[2,3-f][1,4]thiazepin-5(2H)-one 1,1-dioxide]
≤ 5 | CCc1cc(N2C[C@@H](C)N[C@@H](C)C2)ccc1Nc1ncc(C(F)(F)F)c(-c2cc3c(s2)C(=O)N(C2COC2)CCS3(=O)=O)n1 [Example 368, 7-(2-((4-((3S,5R)-3,5-dimethylpiperazin-1-yl)-2-ethylphenyl)amino)-5-(trifluoromethyl)pyrimidin-4-yl)-4-(oxetan-3-yl)-3,4-dihydrothieno[2,3-f][1,4]thiazepin-5(2H)-one 1,1-dioxide]
≤ 5 | CCc1cc(N2C[C@@H](C)N(C)[C@@H](C)C2)ccc1Nc1ncc(C(F)(F)F)c(-c2cc3c(s2)C(=O)N(C2COC2)CCS3(=O)=O)n1 [Example 369, 7-(2-((2-ethyl-4-((3S,5R)-3,4,5-trimethylpiperazin-1-yl)phenyl)amino)-5-(trifluoromethyl)pyrimidin-4-yl)-4-(oxetan-3-yl)-3,4-dihydrothieno[2,3-f][1,4]thiazepin-5(2H)-one 1,1-dioxide]
≤ 5 | CCc1cc(N2C[C@H](C)N[C@@H](C)C2)ccc1Nc1ncc(C(F)(F)F)c(-c2cc3c(s2)C(=O)N(C2COC2)CCS3(=O)=O)n1 [Example 370, 7-(2-((4-((3S,5S)-3,5-dimethylpiperazin-1-yl)-2-ethylphenyl)amino)-5-(trifluoromethyl)pyrimidin-4-yl)-4-(oxetan-3-yl)-3,4-dihydrothieno[2,3-f][1,4]thiazepin-5(2H)-one 1,1-dioxide]
≤ 5 | NC(=O)[C@@H]1CN(c2ccc(Nc3ncc(C(F)(F)F)c(-c4cc5c(s4)C(=O)N(C4COC4)CCS5(=O)=O)n3)c(C3CC3)c2)CCN1 [Example 371, (S)-4-(3-cyclopropyl-4-((4-(4-(oxetan-3-yl)-1,1-dioxido-5-oxo-2,3,4,5-tetrahydrothieno[2,3-f][1,4]thiazepin-7-yl)-5-(trifluoromethyl)pyrimidin-2-yl)amino)phenyl)piperazine-2-carboxamide]
≤ 5 | CN1CCN(c2ccc(Nc3ncc(C(F)(F)F)c(-c4cc5c(s4)C(=O)N(C4COC4)CCS5(=O)=O)n3)c(C3CC3)c2)C[C@H]1C(N)=O [Example 372, (S)-4-(3-Cyclopropyl-4-((4-(4-(oxetan-3-yl)-1,1-dioxido-5-oxo-2,3,4,5-tetrahydrothieno[2,3-f][1,4]thiazepin-7-yl)-5-(trifluoromethyl)pyrimidin-2-yl)amino)phenyl)-1-methylpiperazine-2-carboxamide]
≤ 5 | CNC(=O)[C@@H]1CN(c2ccc(Nc3ncc(C(F)(F)F)c(-c4cc5c(s4)C(=O)N(C4COC4)CCS5(=O)=O)n3)c(C3CC3)c2)CCN1 [Example 373, (S)-4-(3-cyclopropyl-4-((4-(4-(oxetan-3-yl)-1,1-dioxido-5-oxo-2,3,4,5-tetrahydrothieno[2,3-f][1,4]thiazepin-7-yl)-5-(trifluoromethyl)pyrimidin-2-yl)amino)phenyl)-N-methylpiperazine-2-carboxamide]
≤ 5 | C[C@@H]1CN(c2cc(C3CC3)c(Nc3ncc(C(F)(F)F)c(-c4cc5c(s4)C(=O)N(C4COC4)CCS5(=O)=O)n3)cn2)CCN1 [Example 374, (R)-7-(2-((4-cyclopropyl-6-(3-methylpiperazin-1-yl)pyridin-3-yl)amino)-5-(trifluoromethyl)pyrimidin-4-yl)-4-(oxetan-3-yl)-3,4-dihydrothieno[2,3-f][1,4]thiazepin-5(2H)-one 1,1-dioxide]
≤ 5 | C[C@@H]1CN(c2ccc(Nc3ncc(C(F)(F)F)c(-c4cc5c(s4)C(=O)N(C4COC4)CCS5(=O)=O)n3)c(C3CC3)n2)CCN1 [Example 375, (R)-7-(2-((2-cyclopropyl-6-(3-methylpiperazin-1-yl)pyridin-3-yl)amino)-5-(trifluoromethyl)pyrimidin-4-yl)-4-(oxetan-3-yl)-3,4-dihydrothieno[2,3-f][1,4]thiazepin-5(2H)-one 1,1-dioxide]
≤ 5 | C[C@@H]1CN(c2ccc(Nc3ncc(C(F)(F)F)c(-c4cc5c(s4)C(=O)N(C4COC4)CCS5(=O)=O)n3)c(C3CC3)n2)CCN1C [Example 376, (R)-7-(2-((2-cyclopropyl-6-(3,4-dimethylpiperazin-1-yl)pyridin-3-yl)amino)-5-(trifluoromethyl)pyrimidin-4-yl)-4-(oxetan-3-yl)-3,4-dihydrothieno[2,3-f][1,4]thiazepin-5(2H)-one 1,1-dioxide]
